Earlier results as cited in patent US20230390251A1, “METHODS OF TREATING RIBONUCLEOTIDE REDUCTASE-RELATED DISEASES WITH A RIBONUCLEOTIDE REDUCTASE INHIBITOR” (TAIHO PHARMACEUTICAL CO., LTD., priority 2020, published 2023).

Columns and labels:
[1] = biological target: T1, Ribonucleotide reductase (RNR) (Homo sapiens, UniProt P23921+P31350); conditions: from the literature (NPL 7; PL 1); cited from earlier work
T1 sequence (P23921 1-792): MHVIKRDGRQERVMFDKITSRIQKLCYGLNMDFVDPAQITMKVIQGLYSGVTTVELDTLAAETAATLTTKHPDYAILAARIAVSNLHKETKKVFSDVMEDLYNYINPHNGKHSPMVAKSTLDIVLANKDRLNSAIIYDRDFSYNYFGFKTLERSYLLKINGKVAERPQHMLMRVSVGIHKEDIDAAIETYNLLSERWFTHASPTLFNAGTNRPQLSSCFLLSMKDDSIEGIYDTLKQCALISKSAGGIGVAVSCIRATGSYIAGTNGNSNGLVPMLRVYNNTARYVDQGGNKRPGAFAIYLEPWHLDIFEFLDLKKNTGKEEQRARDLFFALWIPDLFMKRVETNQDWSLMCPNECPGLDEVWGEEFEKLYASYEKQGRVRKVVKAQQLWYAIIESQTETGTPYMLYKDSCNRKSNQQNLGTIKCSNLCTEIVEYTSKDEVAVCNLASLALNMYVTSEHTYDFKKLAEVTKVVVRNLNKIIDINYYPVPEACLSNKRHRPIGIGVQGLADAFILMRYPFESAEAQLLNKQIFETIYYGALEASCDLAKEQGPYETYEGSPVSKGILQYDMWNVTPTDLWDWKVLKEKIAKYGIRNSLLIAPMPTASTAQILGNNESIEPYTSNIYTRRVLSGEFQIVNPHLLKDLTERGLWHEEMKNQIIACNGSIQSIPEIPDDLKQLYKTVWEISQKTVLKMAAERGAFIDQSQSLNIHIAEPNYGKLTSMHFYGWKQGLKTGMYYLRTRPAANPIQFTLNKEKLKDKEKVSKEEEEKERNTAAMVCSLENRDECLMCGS
T1 sequence (P31350 1-389): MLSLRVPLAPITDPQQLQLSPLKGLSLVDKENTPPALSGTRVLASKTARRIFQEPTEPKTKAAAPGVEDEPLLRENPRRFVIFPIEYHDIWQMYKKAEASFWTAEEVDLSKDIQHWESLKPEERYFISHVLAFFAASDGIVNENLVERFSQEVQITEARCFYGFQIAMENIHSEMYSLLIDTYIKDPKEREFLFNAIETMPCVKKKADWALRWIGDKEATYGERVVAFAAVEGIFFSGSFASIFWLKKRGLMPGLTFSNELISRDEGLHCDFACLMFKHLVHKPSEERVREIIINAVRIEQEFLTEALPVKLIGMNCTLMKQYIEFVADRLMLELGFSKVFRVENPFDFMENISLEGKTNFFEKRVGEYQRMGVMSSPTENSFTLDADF

[2] = from the literature (NPL 10); off-target effect on Fe ion-containing proteins; cited from earlier work

Structure (SMILES)	RNR inhibitory activity [1]	side effects in clinical cases [2]
NC(=O)NO [HU, hydroxyurea, reference compound]	weak	–
NC(=S)NN=Cc1ncccc1N [Compound 3-AP, 3-aminopyridine-2-carboxaldehyde thiosemicarbazone]	–	side effects such as hypoxia, dyspnea, methemoglobinemia
